Measurements as given in patent publication US4956368A, “Metabolites and prodrug formulations of 8-[4-[4-(1,2-benzisothiazol-3-yl)-1-piperazinyl]butyl]-8-azaspiro[4.5]de cane-7,9-dione” (Bristol-Myers Company, priority 1989, dated 1990).
Where two headings read alike, the source gives them in different places.

How the values were obtained:
[1] = target: Dopamine/Spiperone/neuroleptic receptor site; experiment: Receptor binding test RB1, [3H] Spiperone ligand, D(+)Butaclamol specific binding agent
Excerpt: (§1) As indication of the psychotropic activity and specificity of a compound, state of the art in vitro central nervous system receptor binding (RB) methodology can be employed. […] Inhibition of radiolabeled ligand binding at such sites is considered a measure of the test compound's ability to affect corresponding central nervous system function in vivo.
(§2) Some of the more common binding tests employed are listed below in Table 1.

[2] = target: Alpha-1; experiment: Receptor binding test RB2, [3H] WB-4104 ligand, Phentolamine specific binding agent
Excerpt: as §1, §2

[3] = target: T1, Serotonin Type 2 (5-HT2) (Rattus norvegicus, UniProt P14842); experiment: Receptor binding test RB3, [3H] Spiperone ligand, D-Lysergide specific binding agent
T1 construct: from tissue; frontal cortex in the cited method
T1 sequence (P14842 whole entry): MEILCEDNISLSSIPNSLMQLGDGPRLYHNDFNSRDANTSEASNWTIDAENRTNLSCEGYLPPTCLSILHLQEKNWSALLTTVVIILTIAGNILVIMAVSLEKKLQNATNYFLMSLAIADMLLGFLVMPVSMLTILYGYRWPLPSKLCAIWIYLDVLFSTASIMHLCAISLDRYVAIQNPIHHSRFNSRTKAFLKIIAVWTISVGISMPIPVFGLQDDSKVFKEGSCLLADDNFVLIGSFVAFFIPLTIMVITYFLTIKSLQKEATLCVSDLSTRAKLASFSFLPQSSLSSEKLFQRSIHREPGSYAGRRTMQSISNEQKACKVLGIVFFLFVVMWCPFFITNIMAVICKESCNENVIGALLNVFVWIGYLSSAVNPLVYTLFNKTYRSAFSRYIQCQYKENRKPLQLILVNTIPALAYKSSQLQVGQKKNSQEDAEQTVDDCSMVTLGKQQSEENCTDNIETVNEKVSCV
Excerpt: as §1, §2

[4] = target: T2, Serotonin Type 1A (5-HT1A) (Bos taurus, UniProt F6Q2H9); experiment: Receptor binding test RB4, [3H] 8-OH-DPAT ligand, 8-OH-DPAT specific binding agent
T2 construct: from tissue
T2 sequence (F6Q2H9 1-422): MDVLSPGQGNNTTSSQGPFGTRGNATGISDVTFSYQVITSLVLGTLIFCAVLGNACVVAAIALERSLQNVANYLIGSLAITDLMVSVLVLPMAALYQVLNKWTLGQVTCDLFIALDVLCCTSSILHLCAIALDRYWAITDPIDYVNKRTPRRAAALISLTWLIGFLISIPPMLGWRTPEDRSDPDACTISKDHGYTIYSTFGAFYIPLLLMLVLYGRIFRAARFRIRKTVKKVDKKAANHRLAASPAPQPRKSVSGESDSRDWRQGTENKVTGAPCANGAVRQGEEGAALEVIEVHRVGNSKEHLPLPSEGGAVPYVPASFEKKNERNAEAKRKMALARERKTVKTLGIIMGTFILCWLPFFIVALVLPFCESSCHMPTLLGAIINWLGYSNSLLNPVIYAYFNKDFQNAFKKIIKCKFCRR
Excerpt: as §1, §2

[5] = system: trained fasted rats; experiment: Conditioned Avoidance Response (CAR), attenuation of avoidance response to electrical shock; type: in vivo; settings: Rattus norvegicus
Excerpt: (§3) The following in vivo test systems (Table 2) are illustrative of the conventional testing used to classify and differentiate a psychotropic agent from a non-specific CNS depressant.

[6] = system: dopaminergic activity; experiment: Inhibition of Apomorphine-Induced (APO) Stereotypy, blockade of dopaminergic activity; type: in vivo, rats; settings: Rattus norvegicus, read-out: APO ED50
Excerpt: The following in vivo test systems (Table 2) are illustrative of the conventional testing used to classify and differentiate a psychotropic agent from a non-specific CNS depressant. |2. Inhibition of Apomorphine-Induced (APO) Stereotypy - | an assessment of blockade of dopaminergic activity in rats | as measured by attenuation of the behavioral syndrome | caused by the dopamine agonist, apomorphine. cf: Janssen, | et al, Arzneimittel.

[7] = target: T1, Serotonin Type 2 (5-HT2); settings: background statement; cited from earlier work
[8] = system: Serotonin Type 1A (5-HT1A); settings: background statement; cited from earlier work
[9] = system: sigma receptor; settings: background statement; cited from earlier work
[10] = system: alpha-adrenergic receptor; settings: background statement; cited from earlier work
[11] = system: dopamine D2 receptors; settings: background statement; cited from earlier work
[12] = system: dopamine receptor; settings: following chronic administration; background statement; cited from earlier work
[13] = system: central nervous system receptor; experiment: in vitro receptor binding (RB) tests, overall (Table 6)
Excerpt: As indication of the psychotropic activity and specificity of a compound, state of the art in vitro central nervous system receptor binding (RB) methodology can be employed. Certain compounds (commonly referred to as ligands) have been identified which preferentially bind to specific high affinity sites in brain tissue dealing with psychotropic activity. Inhibition of radiolabeled ligand binding at such sites is considered a measure of the test compound's ability to affect corresponding central nervous system function in vivo.
as §2

[14] = system: psychotropic activity; experiment: in vivo screens predictive of antipsychotic activity, overall (Table 7); design: species or system rats; settings: compared to tiospirone
Excerpt: as §3
1. Conditioned Avoidance Response (CAR) - measure of a
drug's tranquilizing activity as determined by its'
attenuation of avoidance response to electrical shock in
trained fasted rats. cf: Albert, Pharmacologist, -4, 152 (1962);
2. Inhibition of Apomorphine-Induced (APO) Stereotypy -
an assessment of blockade of dopaminergic activity in rats
as measured by attenuation of the behavioral syndrome
caused by the dopamine agonist, apomorphine. cf: Janssen,
et al, Arzneimittel. Forsch., --17, 841 (1966).

| Structure (SMILES) | IC50 [1] | IC50 [2] | IC50 [3] | IC50 ([4]; read-out: RB4 IC50) | ED50 ([5]; po) | ED50 ([6]; po) | also measured |
| --- | --- | --- | --- | --- | --- | --- | --- |
| O=C1CC2(CCC(O)C2)CC(=O)N1CCCCN1CCN(c2n[s+]([O-])c3ccccc23)CC1 (centres unmarked) [Reference # 3] | > 100000 nM | 372 nM | 1480 nM | 1850 nM |  |  |  |
| c1ccc2c(N3CCNCC3)nsc2c1 [Reference # 14, 4-(1,2-benzisothiazol-3-yl)1H-piperazine] | > 1000 nM | 510 nM | 110 nM |  |  |  | IC50 [4]: 179 nM |
| O=C1CC2(CCC(O)C2)CC(=O)N1CCC(O)CN1CCN(c2nsc3ccccc23)CC1 (centres unmarked) [Reference # 9] | 491 nM | 7.15 nM | 19.8 nM |  |  |  |  |
| O=C1CCC2(C1)CC(=O)N(CCCCN1CCN(c3nsc4ccccc34)CC1)C(=O)C2 [Reference # 5, 2-Oxo-8-[4-[4-(1,2-benzisothiazol-3-yl)-1-piperazinyl]butyl]-8-azaspiro[4.5]decane-7,9-dione] | 68.3 nM | 1.3 nM | 2.92 nM |  |  |  | ED50 ([5]; sc): 60.3 mg/kg; ED50 ([6]; sc): > 50 mg/kg |
| CCCCCCCCCC(=O)OC1CCC2(CC(=O)N(CCCCN3CCN(c4nsc5ccccc45)CC3)C(=O)C2)C1 (centres unmarked) [Reference # 12, 8-[4-[4-(1,2-Benzisothiazol-3-yl)-1-piperazinyl]butyl]-7,9-dioxo-8-azaspiro[4.5]decan-2-yl Decanoate] | 153 nM | 7.22 nM | 10.2 nM | 35.8 nM |  |  |  |
| O=C1CC2(CCC(O)C2)CC(=O)N1CCCCN1CCN(c2nsc3ccccc23)CC1 (centres unmarked) [Reference # 2, 2-Hydroxy-8-[4-[4-(1,2-benzisothiazol-3-yl)-1-piperazinyl]butyl]-8-azaspiro[4.5]decane-7,9-dione] | 52.5 nM | 0.876 nM | 2.05 nM |  | > 100 mg/kg |  |  |
| O=C1CN(C2=NS(=O)(=O)c3ccccc32)CCN1 [Reference # 17, 4-(1,2-Benzisothiazol-1,1-dioxo-3-yl)-2-oxo-lH-piperazine] |  | 13100 nM | > 100000 nM | > 1000 nM |  |  |  |
| O=C1CC2(CCCC2)CC(=O)N1CCCCN1CCN(c2nsc3ccccc23)CC1 [Reference # i, 8-[4-[4-(1,2-benzisothiazol-3-yl)-1-piperazinyl]butyl]-8-azaspiro[4.5]decane-7,9-dione] |  | 47 nM |  |  | 10.9 mg/kg | 13.1 mg/kg | in vitro interactions at serotonin 5-HT2 receptors [7]: potent; in vitro interactions at serotonin 5-HT1A receptors [8]: potent; in vitro interactions at sigma receptor sites [9]: potent; in vitro interactions at alpha-adrenergic receptor sites [10]: potent; in vitro affinity for dopamine D2 receptors [11]: appreciable; dopamine receptor supersensitivity [12]: does not cause dopamine receptor supersensitivity |
| O=C1CC2(CCCC2)CC(=O)N1CCCCN1CCN(C2=NS(=O)(=O)c3ccccc32)CC1 [Reference # 1] | > 1000 nM | 274 nM | 25000 nM |  | > 100 mg/kg | > 100 mg/kg |  |
| O=C1CC2(CCCC2)CC(=O)N1CCC(O)CN1CCN(c2nsc3ccccc23)CC1 (centres unmarked) [Reference # 7] | 111 nM | 8.3 nM | 10.2 nM |  | > 80 mg/kg |  |  |
| O=C1CC2(CCCC2)C(O)C(=O)N1CCCCN1CCN(c2nsc3ccccc23)CC1 (centres unmarked) [Reference # 10, 8-[4-[4-(1,2-Benzisothiazol-3-yl)-1-piperazinyl]butyl]-6-hydroxy-8-azaspiro[-4.5]decane-7,9-dione] |  |  | 1.1 nM |  | 8.4 mg/kg | 26 mg/kg |  |
| CC(C)(C)OC(=O)N1CCN(C2=NS(=O)(=O)c3ccccc32)CC1 [Reference # 18, 1,1-Dimethylethyl 4-(1,2-Benzisothiazol-1,1-dioxo-3-yl)-1piperazinecarboxylate] | > 1000 nM | > 100000 nM |  | > 100000 nM |  |  |  |
| O=C1CC2(CCCC2)CC(=O)N1CCCCN1CCN(c2n[s+]([O-])c3ccccc23)CC1 (centres unmarked) [Reference # ii, 8-[4-[4-(1-oxo-l,2-benzisothiazol-3-yl) -1-piperazinyl]butyl]-8-azaspiro[4.5]decane-7,9-dione, reference compound] | 3490 nM | 331 nM | 276 nM | 1120 nM | 7.6 mg/kg | 9.6 mg/kg | in vitro binding affinity compared to tiospirone [13]: attenuation of in vitro binding affinity; potency in in vivo screens predictive of antipsychotic activity [14]: did not affect its potency |
